The values below come from patent US11767322B2 (BRISTOL-MYERS SQUIBB COMPANY, priority 2020, dated 2023).

By IC50 is commonly meant the concentration at which inhibition is half-maximal.

For assay [1], the system named is MLKL phosphorylation in HT29-L23 human colorectal adenocarcinoma cells. Put plainly: MLKL phosphorylation high-content assay. Type of assay: cell-based.
Assay [2] deals with GST-tagged PIK3Cδ in complex with PIK3R1 (Homo sapiens, UniProt O00329). The assay can be described thus: PI3Kδ HTRF binding assay. The settings on record: HTRF probe displacement, 1 h at rt; read-out: PIK3CD IC50. A general note: In TR-FRET formats the signal depends on donor and acceptor labels being close together.
Where [3] appears, read: Homo sapiens, 6 h, HT29-L23 cells, necroptosis induced with TNFα, SMAC mimetic and Z-VAD, 6 h, maximal inhibition defined by Nec1s, read-out: pMLKL IC50.
Setting [4] is: Homo sapiens, Table 22, compounds of the present invention, read-out: pMLKL IC50.
Where [5] appears, read: HT29-L23 cells, necroptosis induced with TNFα, SMAC mimetic and Z-VAD, 6 h, maximal inhibition defined by Nec1s, read-out: pMLKL IC50.
The mark [6] stands for this setting: Table 22, compounds of the present invention, read-out: pMLKL IC50.

Where two headings read alike, the source gives them in different places. Some results are limits rather than exact numbers.

Chain of GST-tagged PIK3Cδ in complex with PIK3R1 (O00329 whole entry): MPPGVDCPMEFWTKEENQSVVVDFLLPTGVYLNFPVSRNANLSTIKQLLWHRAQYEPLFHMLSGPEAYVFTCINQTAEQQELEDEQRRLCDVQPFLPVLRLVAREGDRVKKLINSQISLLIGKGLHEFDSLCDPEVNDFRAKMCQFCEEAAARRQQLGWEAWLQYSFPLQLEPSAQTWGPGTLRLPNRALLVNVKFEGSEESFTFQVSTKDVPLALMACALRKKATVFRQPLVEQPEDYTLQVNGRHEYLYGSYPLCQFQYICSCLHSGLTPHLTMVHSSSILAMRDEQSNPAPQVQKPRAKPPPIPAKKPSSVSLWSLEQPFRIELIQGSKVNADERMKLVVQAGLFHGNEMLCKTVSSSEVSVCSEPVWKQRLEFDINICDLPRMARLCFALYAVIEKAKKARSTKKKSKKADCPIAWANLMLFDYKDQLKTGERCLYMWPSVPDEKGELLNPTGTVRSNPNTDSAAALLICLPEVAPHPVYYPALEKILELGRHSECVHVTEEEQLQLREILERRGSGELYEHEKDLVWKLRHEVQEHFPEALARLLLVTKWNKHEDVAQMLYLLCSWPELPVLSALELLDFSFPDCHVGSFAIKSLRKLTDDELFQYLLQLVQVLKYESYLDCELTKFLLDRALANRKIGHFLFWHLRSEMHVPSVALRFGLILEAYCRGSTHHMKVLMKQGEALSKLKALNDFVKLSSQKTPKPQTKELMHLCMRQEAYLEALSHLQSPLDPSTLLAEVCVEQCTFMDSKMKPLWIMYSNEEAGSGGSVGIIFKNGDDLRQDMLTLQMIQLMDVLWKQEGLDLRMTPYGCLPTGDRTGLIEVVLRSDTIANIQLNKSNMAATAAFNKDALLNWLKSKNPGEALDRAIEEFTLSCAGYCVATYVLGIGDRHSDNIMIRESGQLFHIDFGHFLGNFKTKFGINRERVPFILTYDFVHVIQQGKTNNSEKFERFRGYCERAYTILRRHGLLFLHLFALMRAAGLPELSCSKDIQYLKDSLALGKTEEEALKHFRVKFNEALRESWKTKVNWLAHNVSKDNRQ
Chain of GST-tagged PIK3Cδ in complex with PIK3R1 (P27986 whole entry partner): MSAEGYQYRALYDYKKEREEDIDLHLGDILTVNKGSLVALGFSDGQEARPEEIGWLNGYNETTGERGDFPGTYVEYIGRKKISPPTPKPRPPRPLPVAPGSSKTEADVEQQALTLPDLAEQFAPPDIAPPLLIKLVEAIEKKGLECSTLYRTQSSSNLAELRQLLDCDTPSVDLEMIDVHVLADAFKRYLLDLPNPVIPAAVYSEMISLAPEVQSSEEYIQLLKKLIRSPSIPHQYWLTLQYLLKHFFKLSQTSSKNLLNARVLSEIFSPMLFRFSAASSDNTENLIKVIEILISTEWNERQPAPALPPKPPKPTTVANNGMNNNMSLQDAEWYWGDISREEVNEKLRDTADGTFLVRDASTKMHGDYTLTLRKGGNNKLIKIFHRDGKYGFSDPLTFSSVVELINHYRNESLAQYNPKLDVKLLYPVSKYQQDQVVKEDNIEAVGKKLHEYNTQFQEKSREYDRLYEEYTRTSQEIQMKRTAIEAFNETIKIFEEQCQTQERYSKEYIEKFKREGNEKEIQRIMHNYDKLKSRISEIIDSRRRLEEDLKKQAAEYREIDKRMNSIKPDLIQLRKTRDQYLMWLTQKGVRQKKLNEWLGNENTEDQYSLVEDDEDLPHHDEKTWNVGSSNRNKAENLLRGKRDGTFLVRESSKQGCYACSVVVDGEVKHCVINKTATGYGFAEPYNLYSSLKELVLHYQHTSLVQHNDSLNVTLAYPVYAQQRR

In the case of `Cc1cc(Cl)c(-c2ccn3nc(N)nc3c2)cc1C(=O)NCC[C@H](O)c1ccc(Cl)cc1` [Example 144, (S)-5-(2-amino-[1,2,4]triazolo[1,5-a]pyridin-7-yl)-4-chloro-N-(3-(4-chlorophenyl)-3-hydroxypropyl)-2-methylbenzamide], the IC50 in assay [1] (setting [3]) is 4.2 nM; in assay [2] it was more than 15000 nM.

As to `Cc1ccc(-c2ccn3nc(N)nc3c2)c(F)c1C(=O)NCCC(O)c1ccc(F)c(F)c1` (single isomer, unassigned) [Example 66, 3-(2-amino-[1,2,4]triazolo[1,5-a]pyridin-7-yl)-N-(3-(3,4-difluorophenyl)-3-hydroxypropyl)-2-fluoro-6-methylbenzamide], the IC50 is 1.2 nM in assay [1] (setting [3]), 1.2 nM in assay [1] (setting [4]) and more than 15000 nM in assay [2].

`Cc1ccc(-c2ccn3nc(N)nc3c2)c(F)c1C(=O)NCC(F)(F)C(O)C1CC(F)(F)C1` (stereo not drawn) [Example 258, 3-(2-amino-[1,2,4]triazolo[1,5-a]pyridin-7-yl)-N-(3-(3,3-difluorocyclobutyl)-2,2-difluoro-3-hydroxypropyl)-2-fluoro-6-methylbenzamide]: in assay [2], the IC50 was more than 15000 nM.

Consider `Nc1nc2cc(-c3ccc(Cl)c(C(=O)NCC[C@H](O)c4ccc(Cl)cc4)c3)ccn2n1` [Example 91, (S)-5-(2-amino-[1,2,4]triazolo[1,5-a]pyridin-7-yl)-2-chloro-N-(3-(4-chlorophenyl)-3-hydroxypropyl)benzamide], for which the IC50 was 34 nM in assay [1] (setting [3]) and 8000 nM in assay [2].

Turning to `Nc1nc2cc(-c3ccc(Cl)c(C(=O)NCC[C@@H](O)c4ccc(Cl)cc4)c3)ccn2n1` [Example 90, (R)-5-(2-amino-[1,2,4]triazolo[1,5-a]pyridin-7-yl)-2-chloro-N-(3-(4-chlorophenyl)-3-hydroxypropyl)benzamide], the IC50 is 15 nM in assay [1] (setting [3]) and more than 15000 nM in assay [2].

As to `CC(O)(CCNC(=O)c1cc(-c2ccn3nc(N)nc3c2)ccc1Cl)c1ccccc1` (stereo not drawn) [Example 93, 5-(2-amino-[1,2,4]triazolo[1,5-a]pyridin-7-yl)-2-chloro-N-(3-hydroxy-3-phenylbutyl)benzamide], the IC50 came to 256 nM in assay [1] (setting [3]) and 11000 nM in assay [2].

With `Cc1ccc(-c2ccn3nc(N)nc3c2)c(F)c1C(=O)NCC(F)(F)C(O)C1CC(F)(F)C1` (stereo not drawn) [Example 259, 3-(2-amino-[1,2,4]triazolo[1,5-a]pyridin-7-yl)-N-(3-(3,3-difluorocyclobutyl)-2,2-difluoro-3-hydroxypropyl)-2-fluoro-6-methylbenzamide], the IC50 in assay [2] was more than 15000 nM.

For the compound `Cc1ccc(-c2ccn3nc(N)nc3c2)c(F)c1C(=O)NCCC(=O)c1ccc(Cl)cc1` [Example 143, 3-{2-amino-[1,2,4]triazolo[1,5-a]pyridin-7-yl}-N-[3-(4-chlorophenyl)-3-oxopropyl]-2-fluoro-6-methylbenzamide], the IC50 in assay [1] (Homo sapiens, 6 h, read-out: pMLKL IC50, HT29-L23 cells, necroptosis induced with TNFα, SMAC mimetic and Z-VAD, 6 h, maximal inhibition defined by Nec1s) was 2.4 nM; in assay [2], more than 15000 nM.

On to `Cc1cc(F)c(-c2ccn3nc(N)nc3c2)cc1C(=O)NCCC(O)c1ccc(C(F)(F)F)cc1` (racemic) [Example 2, 5-(2-amino-[1,2,4]triazolo[1,5-a]pyridin-7-yl)-4-fluoro-N-(3-hydroxy-3-(4-(trifluoromethyl)phenyl)propyl)-2-methylbenzamide], for which the IC50 in assay [2] is more than 15000 nM.

`Cc1cc(F)c(-c2ccn3nc(N)nc3c2)cc1C(=O)NCCC(O)c1ccc(C(F)(F)F)cc1` (single isomer, unassigned) [Example 3, 5-(2-amino-[1,2,4]triazolo[1,5-a]pyridin-7-yl)-4-fluoro-N-(3-hydroxy-3-(4-(trifluoromethyl)phenyl)propyl)-2-methylbenzamide]: the IC50 in assay [2] is more than 15000 nM.

Take `Cc1ccc(-c2ccn3nc(N)nc3c2)c(F)c1C(=O)NC(CF)CC(O)c1ccc(Cl)cc1` (single isomer, unassigned) [Example 24, 3-(2-amino-[1,2,4]triazolo[1,5-a]pyridin-7-yl)-N-(4-(4-chlorophenyl)-1-fluoro-4-hydroxybutan-2-yl)-2-fluoro-6-methylbenzamide]: the IC50 in assay [2] is more than 15000 nM.

As to `Cc1ccc(-c2ccn3nc(N)nc3c2)c(F)c1C(=O)NCCC(O)c1cccc(F)c1` (single isomer, unassigned) [Example 63, 3-(2-amino-[1,2,4]triazolo[1,5-a]pyridin-7-yl)-2-fluoro-N-(3-(3-fluorophenyl)-3-hydroxypropyl)-6-methylbenzamide], the figures for the IC50 in assay [1] (setting [3]) and in assay [2] were 1.9 nM and 13000 nM, respectively.

Turning to `Cc1ccc(-c2ccn3nc(N)nc3c2)c(F)c1C(=O)NC(C)CC(O)c1ccc(Cl)cc1` (racemic) [Example 19, 3-(2-amino-[1,2,4]triazolo[1,5-a]pyridin-7-yl)-N-[4-(4-chlorophenyl)-4-hydroxybutan-2-yl]-2-fluoro-6-methylbenzamide], the IC50 in assay [1] (setting [5]) is 7.7 nM; in assay [1] (setting [6]) it was 7.7 nM; in assay [2], more than 15000 nM.

Take `CC(CCNC(=O)c1cc(-c2ccn3nc(N)nc3c2)ccc1Cl)c1ccccc1` (stereo not drawn) [Example 92, 5-(2-amino-[1,2,4]triazolo[1,5-a]pyridin-7-yl)-2-chloro-N-(3-phenylbutyl)benzamide]: the IC50 in assay [1] (setting [3]) stood at 11 nM; in assay [1] (setting [4]), 11 nM; in assay [2], 5200 nM.

`Cc1ccc(-c2ccn3nc(N)nc3c2)c(F)c1C(=O)NCCC(O)c1ccc(Cl)cn1` (single isomer, unassigned) [Example 47, 3-(2-amino-[1,2,4]triazolo[1,5-a]pyridin-7-yl)-N-(3-(5-chloropyridin-2-yl)-3-hydroxypropyl)-2-fluoro-6-methylbenzamide]: in assay [2], the IC50 is more than 15000 nM.

Take `Nc1nc2cc(-c3c(F)ccc(C(=O)NCC[C@H](O)c4ccc(Cl)cc4)c3F)ccn2n1` [Example 219, (S)-3-(2-amino-[1,2,4]triazolo[1,5-a]pyridin-7-yl)-N-(3-(4-chlorophenyl)-3-hydroxypropyl)-2,4-difluorobenzamide]: the IC50 is 42 nM in assay [1] (setting [3]) and more than 15000 nM in assay [2].

With `Cc1ccc(-c2ccn3nc(N)nc3c2)c(F)c1C(=O)NCC(F)(F)C(O)c1ccc(Cl)c(Cl)c1` (single isomer, unassigned) [Example 112, 3-{2-amino-[1,2,4]triazolo[1,5-a]pyridin-7-yl}-N-[3-(3,4-dichlorophenyl)-2,2-difluoro-3-hydroxypropyl]-2-fluoro-6-methylbenzamide], the IC50 in assay [2] was more than 15000 nM.

Take `Cc1cc(F)c(-c2ccn3nc(N)nc3c2)cc1C(=O)NCCC(O)c1ccc(C(F)(F)F)cc1` (single isomer, unassigned) [Example 4, 5-(2-amino-[1,2,4]triazolo[1,5-a]pyridin-7-yl)-4-fluoro-N-(3-hydroxy-3-(4-(trifluoromethyl)phenyl)propyl)-2-methylbenzamide]: the IC50 in assay [1] (read-out: pMLKL IC50, HT29-L23 cells, necroptosis induced with TNFα, SMAC mimetic and Z-VAD, 6 h, maximal inhibition defined by Nec1s) was 1 nM; in assay [2] it was more than 15000 nM.

In the case of `Cc1c(C(=O)NC(CF)CC(O)c2ccc(Cl)cc2)cc(-c2ccn3nc(N)nc3c2)c(F)c1F` (racemic) [Example 103, 5-(2-amino-[1,2,4]triazolo[1,5-a]pyridin-7-yl)-N-(4-(4-chlorophenyl)-1-fluoro-4-hydroxybutan-2-yl)-3,4-difluoro-2-methylbenzamide], the IC50 in assay [1] (setting [5]) is 2060 nM; in assay [2] it was more than 15000 nM.

In the case of `Cc1ccc(-c2ccn3nc(N)nc3c2)c(F)c1C(=O)NC(C)CC(O)c1ccc(Cl)cc1` (racemic) [Example 20, 3-(2-amino-[1,2,4]triazolo[1,5-a]pyridin-7-yl)-N-[4-(4-chlorophenyl)-4-hydroxybutan-2-yl]-2-fluoro-6-methylbenzamide], the IC50 was 3.6 nM in assay [1] (setting [5]), 3.6 nM in assay [1] (setting [6]) and more than 15000 nM in assay [2].

On to `Cc1ccc(-c2ccn3nc(N)nc3c2)c(F)c1C(=O)NC[C@H](F)[C@@H](O)c1ccc(Cl)cc1` (single isomer, unassigned) [Example 302], for which the IC50 in assay [2] is more than 15000 nM.

For `Cc1ccc(-c2ccn3nc(N)nc3c2)c(F)c1C(=O)NCC(F)(F)C(O)c1ccc(Cl)c(Cl)c1` (single isomer, unassigned) [Example 113, 3-{2-amino-[1,2,4]triazolo[1,5-a]pyridin-7-yl}-N-[3-(3,4-dichlorophenyl)-2,2-difluoro-3-hydroxypropyl]-2-fluoro-6-methylbenzamide], in assay [2], the IC50 is more than 15000 nM.

For the compound `Cc1ccc(-c2ccn3nc(N)nc3c2)c(F)c1C(=O)NC[C@@H](F)[C@H](O)c1ccc(Cl)cc1` (single isomer, unassigned) [Example 303], the IC50 in assay [2] was more than 15000 nM.

Consider `Nc1nc2cc(-c3c(F)ccc(C(=O)NCC[C@@H](O)c4ccc(Cl)cc4)c3F)ccn2n1` [Example 220, (R)-3-(2-amino-[1,2,4]triazolo[1,5-a]pyridin-7-yl)-N-(3-(4-chlorophenyl)-3-hydroxypropyl)-2,4-difluorobenzamide], for which the IC50 in assay [1] (setting [3]) is 36 nM; in assay [2], more than 15000 nM.

In the case of `Cc1ccc(-c2ccn3nc(N)nc3c2)c(F)c1C(=O)NCC[C@H](O)c1ccc(C#N)cc1` [Example 139, 3-{2-amino-[1,2,4]triazolo[1,5-a]pyridin-7-yl}-N-[(3S)-3-(4-cyanophenyl)-3-hydroxypropyl]-2-fluoro-6-methylbenzamide], the values for the IC50 in assay [1] (setting [3]) and in assay [2] were 7.4 nM and more than 15000 nM, respectively.

Consider `Cc1ccc(-c2ccn3nc(N)nc3c2)c(F)c1C(=O)NC(CF)CC(O)c1ccc(Cl)cc1` (single isomer, unassigned) [Example 23, 3-(2-amino-[1,2,4]triazolo[1,5-a]pyridin-7-yl)-N-(4-(4-chlorophenyl)-1-fluoro-4-hydroxybutan-2-yl)-2-fluoro-6-methylbenzamide], for which the IC50 in assay [2] is more than 15000 nM.
